# Organism: Rattus norvegicus
# Experiment: DrugMatrix - Regimen: Daily Repeat
# Assay type: toxicity, organism-based, Sprague-Dawley
# Parameters: regimen Daily Repeat, gender Male, age 6-8 weeks
# Settings: in vivo, po, route oral GAVAGE, vehicle .5 % CMC; for BASOPHIL / EOSINOPHIL / ERYTHROCYTE COUNT / HEMATOCRIT / HEMOGLOBIN / LEUKOCYTE COUNT / LYMPHOCYTE / MEAN CORPUSCULAR HEMOGLOBIN / MEAN CORPUSCULAR HEMOGLOBIN CONCENTRATION / MEAN CORPUSCULAR VOLUME / MONOCYTE / NEUTROPHIL / PLATELET COUNT: tissue Blood; for ALANINE AMINOTRANSFERASE / ALBUMIN / ALKALINE PHOSPHATASE / ASPARTATE AMINOTRANSFERASE / BLOOD UREA NITROGEN / CHLORIDE / CHOLESTEROL / CREATINE PHOSPHOKINASE / CREATININE / GLUCOSE / PHOSPHORUS / POTASSIUM / SODIUM / TOTAL BILIRUBIN / TOTAL PROTEIN: tissue Plasma
# [1] = 0 mg/kg, 72 h, dose level Control, time 3 day
# [2] = 0 mg/kg, 120 h, dose level Control, time 5 day
# [3] = 41 mg/kg, 72 h, dose level High, time 3 day
# [4] = 41 mg/kg, 120 h, dose level High, time 5 day
# [5] = […], 72 h, dose 4.1 mg/Kg, dose level Low, time 3 day
# [6] = […], 120 h, dose 4.1 mg/Kg, dose level Low, time 5 day
compound,measurement,setting,value
O=C1c2ccccc2C(=O)C1c1ccccc1 [PHENINDIONE],BASOPHIL,[1],0.68%
same,EOSINOPHIL,[1],0.46%
same,ERYTHROCYTE COUNT,[1],7.15 x10E6/uL
same,HEMATOCRIT,[1],45.44%
same,HEMOGLOBIN,[1],14.1 G/DL
same,LEUKOCYTE COUNT,[1],9.78 x10E3/uL
same,LYMPHOCYTE,[1],84.44%
same,MEAN CORPUSCULAR HEMOGLOBIN,[1],19.72 pg
same,MEAN CORPUSCULAR HEMOGLOBIN CONCENTRATION,[1],31 G/DL
same,MEAN CORPUSCULAR VOLUME,[1],63.66 fL
same,MONOCYTE,[1],2.14%
same,NEUTROPHIL,[1],11.16%
same,PLATELET COUNT,[1],1378.2 x10E3/uL
same,ALANINE AMINOTRANSFERASE,[1],42.33 u/L
same,ALBUMIN,[1],3.8 G/DL
same,ALKALINE PHOSPHATASE,[1],388.17 u/L
same,ASPARTATE AMINOTRANSFERASE,[1],68 u/L
same,BLOOD UREA NITROGEN,[1],16.17 mg/dL
same,CHLORIDE,[1],96.67 MEQ/L
same,CHOLESTEROL,[1],71 mg/dL
same,CREATINE PHOSPHOKINASE,[1],156.17 u/L
same,CREATININE,[1],0.57 mg/dL
same,GLUCOSE,[1],193.67 mg/dL
same,PHOSPHORUS,[1],11.43 mg/dL
same,POTASSIUM,[1],7 MEQ/L
same,SODIUM,[1],140.33 MEQ/L
same,TOTAL BILIRUBIN,[1],0.48 mg/dL
same,TOTAL PROTEIN,[1],6.8 G/DL
same,BASOPHIL,[2],1.47%
same,EOSINOPHIL,[2],1%
same,ERYTHROCYTE COUNT,[2],7.12 x10E6/uL
same,HEMATOCRIT,[2],45.47%
same,HEMOGLOBIN,[2],14.1 G/DL
same,LEUKOCYTE COUNT,[2],11.38 x10E3/uL
same,LYMPHOCYTE,[2],82.57%
same,MEAN CORPUSCULAR HEMOGLOBIN,[2],19.82 pg
same,MEAN CORPUSCULAR HEMOGLOBIN CONCENTRATION,[2],31.02 G/DL
same,MEAN CORPUSCULAR VOLUME,[2],63.88 fL
same,MONOCYTE,[2],2.2%
same,NEUTROPHIL,[2],11.97%
same,PLATELET COUNT,[2],1267 x10E3/uL
same,ALANINE AMINOTRANSFERASE,[2],38 u/L
same,ALBUMIN,[2],3.72 G/DL
same,ALKALINE PHOSPHATASE,[2],391 u/L
same,ASPARTATE AMINOTRANSFERASE,[2],65.83 u/L
same,BLOOD UREA NITROGEN,[2],14.17 mg/dL
same,CHLORIDE,[2],107.67 MEQ/L
same,CHOLESTEROL,[2],61 mg/dL
same,CREATINE PHOSPHOKINASE,[2],148.33 u/L
same,CREATININE,[2],0.57 mg/dL
same,GLUCOSE,[2],177.17 mg/dL
same,PHOSPHORUS,[2],12.07 mg/dL
same,POTASSIUM,[2],7.2 MEQ/L
same,SODIUM,[2],151.5 MEQ/L
same,TOTAL BILIRUBIN,[2],0.58 mg/dL
same,TOTAL PROTEIN,[2],6.72 G/DL
same,BASOPHIL,[3],0.3%
same,EOSINOPHIL,[3],0.33%
same,ERYTHROCYTE COUNT,[3],7.21 x10E6/uL
same,HEMATOCRIT,[3],45.77%
same,HEMOGLOBIN,[3],14.17 G/DL
same,LEUKOCYTE COUNT,[3],11.97 x10E3/uL
same,LYMPHOCYTE,[3],84.4%
same,MEAN CORPUSCULAR HEMOGLOBIN,[3],19.77 pg
same,MEAN CORPUSCULAR HEMOGLOBIN CONCENTRATION,[3],30.97 G/DL
same,MEAN CORPUSCULAR VOLUME,[3],63.73 fL
same,MONOCYTE,[3],2.13%
same,NEUTROPHIL,[3],11.97%
same,PLATELET COUNT,[3],1382.67 x10E3/uL
same,ALANINE AMINOTRANSFERASE,[3],31.33 u/L
same,ALBUMIN,[3],3.67 G/DL
same,ALKALINE PHOSPHATASE,[3],276 u/L
same,ASPARTATE AMINOTRANSFERASE,[3],57 u/L
same,BLOOD UREA NITROGEN,[3],11 mg/dL
same,CHLORIDE,[3],96 MEQ/L
same,CHOLESTEROL,[3],75.33 mg/dL
same,CREATINE PHOSPHOKINASE,[3],160 u/L
same,CREATININE,[3],0.47 mg/dL
same,GLUCOSE,[3],189.67 mg/dL
same,PHOSPHORUS,[3],13.23 mg/dL
same,POTASSIUM,[3],6.77 MEQ/L
same,SODIUM,[3],140.67 MEQ/L
same,TOTAL BILIRUBIN,[3],0.27 mg/dL
same,TOTAL PROTEIN,[3],6.63 G/DL
same,BASOPHIL,[4],1.47%
same,EOSINOPHIL,[4],0.3%
same,ERYTHROCYTE COUNT,[4],7.12 x10E6/uL
same,HEMATOCRIT,[4],45.4%
same,HEMOGLOBIN,[4],14.17 G/DL
same,LEUKOCYTE COUNT,[4],14.99 x10E3/uL
same,LYMPHOCYTE,[4],85.6%
same,MEAN CORPUSCULAR HEMOGLOBIN,[4],19.93 pg
same,MEAN CORPUSCULAR HEMOGLOBIN CONCENTRATION,[4],31.23 G/DL
same,MEAN CORPUSCULAR VOLUME,[4],63.83 fL
same,MONOCYTE,[4],2.43%
same,NEUTROPHIL,[4],9.5%
same,PLATELET COUNT,[4],1502.67 x10E3/uL
same,ALANINE AMINOTRANSFERASE,[4],34 u/L
same,ALBUMIN,[4],3.53 G/DL
same,ALKALINE PHOSPHATASE,[4],292 u/L
same,ASPARTATE AMINOTRANSFERASE,[4],57 u/L
same,BLOOD UREA NITROGEN,[4],10.67 mg/dL
same,CHLORIDE,[4],103.67 MEQ/L
same,CHOLESTEROL,[4],83.33 mg/dL
same,CREATINE PHOSPHOKINASE,[4],132.67 u/L
same,CREATININE,[4],0.47 mg/dL
same,GLUCOSE,[4],192.67 mg/dL
same,PHOSPHORUS,[4],12.77 mg/dL
same,POTASSIUM,[4],7.37 MEQ/L
same,SODIUM,[4],150 MEQ/L
same,TOTAL BILIRUBIN,[4],0.37 mg/dL
same,TOTAL PROTEIN,[4],6.43 G/DL
same,BASOPHIL,[5],0.47%
same,EOSINOPHIL,[5],0.27%
same,ERYTHROCYTE COUNT,[5],7.09 x10E6/uL
same,HEMATOCRIT,[5],45.17%
same,HEMOGLOBIN,[5],13.97 G/DL
same,LEUKOCYTE COUNT,[5],12.61 x10E3/uL
same,LYMPHOCYTE,[5],82.37%
same,MEAN CORPUSCULAR HEMOGLOBIN,[5],19.7 pg
same,MEAN CORPUSCULAR HEMOGLOBIN CONCENTRATION,[5],30.9 G/DL
same,MEAN CORPUSCULAR VOLUME,[5],63.73 fL
same,MONOCYTE,[5],2.5%
same,NEUTROPHIL,[5],13.5%
same,PLATELET COUNT,[5],1416.33 x10E3/uL
same,ALANINE AMINOTRANSFERASE,[5],33 u/L
same,ALBUMIN,[5],3.63 G/DL
same,ALKALINE PHOSPHATASE,[5],396.33 u/L
same,ASPARTATE AMINOTRANSFERASE,[5],56 u/L
same,BLOOD UREA NITROGEN,[5],11.33 mg/dL
same,CHLORIDE,[5],96 MEQ/L
same,CHOLESTEROL,[5],74.67 mg/dL
same,CREATINE PHOSPHOKINASE,[5],136.67 u/L
same,CREATININE,[5],0.47 mg/dL
same,GLUCOSE,[5],209.33 mg/dL
same,PHOSPHORUS,[5],12.83 mg/dL
same,POTASSIUM,[5],6.4 MEQ/L
same,SODIUM,[5],140.33 MEQ/L
same,TOTAL BILIRUBIN,[5],0.27 mg/dL
same,TOTAL PROTEIN,[5],6.5 G/DL
same,BASOPHIL,[6],1.43%
same,EOSINOPHIL,[6],0.2%
same,ERYTHROCYTE COUNT,[6],6.9 x10E6/uL
same,HEMATOCRIT,[6],44.03%
same,HEMOGLOBIN,[6],13.87 G/DL
same,LEUKOCYTE COUNT,[6],10.25 x10E3/uL
same,LYMPHOCYTE,[6],84.9%
same,MEAN CORPUSCULAR HEMOGLOBIN,[6],20.03 pg
same,MEAN CORPUSCULAR HEMOGLOBIN CONCENTRATION,[6],31.4 G/DL
same,MEAN CORPUSCULAR VOLUME,[6],63.83 fL
same,MONOCYTE,[6],2.17%
same,NEUTROPHIL,[6],10.6%
same,PLATELET COUNT,[6],1408.33 x10E3/uL
same,ALANINE AMINOTRANSFERASE,[6],37.33 u/L
same,ALBUMIN,[6],3.6 G/DL
same,ALKALINE PHOSPHATASE,[6],340.67 u/L
same,ASPARTATE AMINOTRANSFERASE,[6],58 u/L
same,BLOOD UREA NITROGEN,[6],9 mg/dL
same,CHLORIDE,[6],103.33 MEQ/L
same,CHOLESTEROL,[6],58 mg/dL
same,CREATINE PHOSPHOKINASE,[6],132.33 u/L
same,CREATININE,[6],0.43 mg/dL
same,GLUCOSE,[6],190.33 mg/dL
same,PHOSPHORUS,[6],13.17 mg/dL
same,POTASSIUM,[6],7.2 MEQ/L
same,SODIUM,[6],150.33 MEQ/L
same,TOTAL BILIRUBIN,[6],0.27 mg/dL
